# Test results as given in US12084481B2 (priority 2016, dated 2024).
# How the values were obtained:
# [1] = molecular target: Hv1 channels (Homo sapiens, UniProt Q96D96); settings: cited from earlier work
# [2] = tested on: human blood cells; format: cell-based; settings: 100 μM
# [3] = tested on: H^+ currents; settings: cited from earlier work
# [4] = molecular target: hHv1 (Homo sapiens, UniProt Q96D96); format: cell-based
# hHv1, sequence (Q96D96 whole entry): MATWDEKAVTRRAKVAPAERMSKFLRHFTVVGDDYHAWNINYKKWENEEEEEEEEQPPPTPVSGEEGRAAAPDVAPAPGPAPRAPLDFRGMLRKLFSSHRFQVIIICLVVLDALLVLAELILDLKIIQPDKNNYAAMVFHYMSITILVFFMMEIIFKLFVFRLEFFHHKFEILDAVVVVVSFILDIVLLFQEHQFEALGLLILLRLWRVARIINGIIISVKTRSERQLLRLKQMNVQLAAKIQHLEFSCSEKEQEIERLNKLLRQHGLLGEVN
# Hv1 channels, sequence (Q96D96 whole entry): as above
Compound,effect on H^+ currents [3],also measured
CCCCCCCC/C=C\CCCCCCCC(=O)O [oleic acid],,effect on Hv1 proton currents [1]: enhance Hv1 proton currents
[Zn] [zinc],,production of ROS [2]: blocks ROS production to background (control) levels
Nc1ccncc1 [4-aminopyridine],block H^+ currents,
GCKGFGDSCADSDDCCETFHCKWVFFTSKFMCRRVWGKD [A6],,Activator/Inhibitor [4]: ACTIVATOR
O=C(O[C@@H]1Cc2c(O)cc(O)cc2O[C@@H]1c1cc(O)c(O)c(O)c1)c1cc(O)c(O)c(O)c1 [EGCG],block H^+ currents,
CN(C)CCCN1c2ccccc2CCc2ccccc21 [imipramine],block H^+ currents,
CCCCC/C=C\C/C=C\C/C=C\C/C=C\CCCC(=O)O [arachidonic acid],,effect on Hv1 proton currents [1]: enhance Hv1 proton currents
N=C(N)NC(=O)c1nc(Cl)c(N)nc1N [amiloride],block H^+ currents,
GCLGDKCADSDDCCETFHCKWVFFTSKFMCRRVWGKD [B1],,Activator/Inhibitor [4]: ACTIVATOR
CN(C)CCC=C1c2ccccc2CCc2ccccc21 [amitryptiline],block H^+ currents,
COc1ccc(CCN(C)CCCC(C#N)(c2ccc(OC)c(OC)c2)C(C)C)cc1OC (stereo not shown) [verapamil],block H^+ currents,
COc1ccc2c(c1)[C@]13CCCC[C@@H]1[C@H](C2)N(C)CC3 [dextromethorphan],block H^+ currents,
COc1ccc(CCN(C)CCCC(C#N)(c2cc(OC)c(OC)c(OC)c2)C(C)C)cc1OC (stereo not shown) [D600],block H^+ currents,
ECRYLFGGCKTTSDCCKHLGCKFRDKYCAWDFTFS [hanatoxin],,concentrations inhibiting Hv1 [1]: low micromolar
CNCCCN1c2ccccc2CCc2ccccc21 [desipramine],block H^+ currents,
CNCCC(Oc1ccc(C(F)(F)F)cc1)c1ccccc1 (stereo not shown) [fluoxetine],block H^+ currents,
